Patent US20080194614A1, “Combination of Organic Compounds” (priority 2005, published 2008)

What was measured:
[1] = 4-week toxicity study in rats; type: in vivo
Protocol: (§1) Rapamycin or derivatives thereof are well tolerated at dosages required for use in accordance with the present invention. For example, the NTEL for Compound A in a 4-week toxicity study is 0.5 mg/kg/day in rats and 1.5 mg/kg/day in monkeys.

[2] = 4-week toxicity study in monkeys; type: in vivo
Protocol: as §1

CO[C@H]1C[C@@H]2CC[C@@H](C)[C@@](O)(O2)C(=O)C(=O)N2CCCC[C@H]2C(=O)O[C@H]([C@H](C)C[C@@H]2CC[C@@H](OCCO)[C@H](OC)C2)CC(=O)[C@H](C)/C=C(\C)[C@@H](O)[C@@H](OC)C(=O)[C@H](C)C[C@H](C)/C=C/C=C/C=C/1C [Compound A, 40-0-(2-hydroxyethyl)-rapamycin]
NTEL [1]: 0.5 mg/kg/day | NTEL [2]: 1.5 mg/kg/day
